In patent US10322112B2, “Compound combinations for attenuation of bacterial virulence” (priority 2016, dated 2019):
“Also recorded” adds a separate entry of the source.

Tests used:
RhlR = molecular target: T1, RhlR (Pseudomonas aeruginosa, UniProt P54292); assay: E. coli reporter gene primary agonism assay, RhlR; assay type: cell-based; conditions: compounds at 100 mm; 900 mm BHL = 100%; error ±10%; selected data reproduced from Welsh et al., 2015
T1 construct: expressed in transfected cells; host or cells: E. coli JLD271
T1 sequence (P54292 whole entry): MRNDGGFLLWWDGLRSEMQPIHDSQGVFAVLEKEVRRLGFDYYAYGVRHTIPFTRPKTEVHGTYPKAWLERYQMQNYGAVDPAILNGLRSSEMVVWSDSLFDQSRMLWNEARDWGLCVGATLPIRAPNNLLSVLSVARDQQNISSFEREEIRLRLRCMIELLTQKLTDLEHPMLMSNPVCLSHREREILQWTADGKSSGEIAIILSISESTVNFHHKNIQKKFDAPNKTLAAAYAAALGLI
Experimental: Percent agonism of a given non-native inducer in a given bacterium and QS system receptor is measured with resepct to the maximum level of agonism (activation) by the native ligand of that receptor in the given bacterium. Percent antagonism is measured in competitive assays. The QS system of interest is activated to 100% with added or endogenous native ligand and the % antagonism of the non-native inducer is assessed with respect to 100% activation by the native inducer. The native ligand which induces LasR is OdDHL, which induces RhlR is BHL and which induces PqsR is PQS. As described herein and in cited references, assays for assessment of % agonism or % atangonism may be performed in E. coli systems (heterologous) or in the bacterium of interest, e.g., Pseudomonas. Dependent upon the assay system employed native ligand may be endogenously present or it may be exogenously supplied to the assay system. […] In antagonism assays using the native strains with functional QS systems, e.g., those of P. aeruginosa, endogenous native ligand is made in the system, so no native ligand is added. In native strains having one or more non-functional QS systems (mutant strains), e.g., P. aeruginosa mutants with non-functional QS systems, native ligand is added at about 10-100× the EC50 of the native ligand. In the agonism assay, native ligand is added as a control. Details of the assays are provided herein in Example 9 and in references cited in Example 9.

P. aeruginosa (PAO1) = assay: P. aeruginosa growth curves; assay type: cell-based, Pseudomonas aeruginosa
Experimental: FIGS. 2A-2D are wild-type P. aeruginosa growth curves in the presence of test compounds in various media. Related to FIGS. 3, 6A and 6B, 7A and 7B, and 12. (FIG. 2A) Growth curves in complete MOPS/Glutamate. (FIG. 2B) Growth curves in complete MOPS/Glucose. […] (FIG. 2D) Growth curves in SCFM2. P. aeruginosa (PAO1) was grown in a manner identical to the pyocyanin assay (see Experimental Procedures). At each time point, growth was measured by either reading OD600 (for MOPS media) or by serially diluting culture aliquots, plating on LB agar, and counting CFUs after overnight incubation at 37° C. (for SCFM2). Compound concentrations are 100 microM for compounds 1, 2, and 3 and 25 microM for compound 4 in all experiments unless noted otherwise. Error bars represent the standard error of at least two biological replicates (n≥2). BHL=N-butyryl L-homoserine lactone (Cayman Chemicals).
B. Bacterial Strains and Growth Conditions. Protocols for construction of genetic knockout strains are described below in Example 2. All reagents for bacterial culture were purchased from Sigma-Aldrich unless indicated otherwise. Bacteria were routinely cultured in Luria-Bertani broth (LB) at 37° C. with shaking at 200 rpm. Freezer stocks of bacterial strains were maintained at −80° C. in 1:1 LB:glycerol. Bacterial growth was routinely assessed by measuring the culture cell density according to absorbance at 600 nm (OD600341). Cell growth in simulated cystic fibrosis sputum medium (SCFM2) was determined by serially diluting assay cultures, plating on LB agar, and counting the number of colony forming units (CFU) appearing after overnight incubation at 37° C.

QscR = QscR (Pseudomonas aeruginosa, UniProt G3XD77); conditions: compounds at 100 mm; E. coli reporter strain JLD271/pJN105Q/pSC11-Q; 100 mm OdDHL = 100%; error ±10%
Sequence of QscR (G3XD77 entry or part of it): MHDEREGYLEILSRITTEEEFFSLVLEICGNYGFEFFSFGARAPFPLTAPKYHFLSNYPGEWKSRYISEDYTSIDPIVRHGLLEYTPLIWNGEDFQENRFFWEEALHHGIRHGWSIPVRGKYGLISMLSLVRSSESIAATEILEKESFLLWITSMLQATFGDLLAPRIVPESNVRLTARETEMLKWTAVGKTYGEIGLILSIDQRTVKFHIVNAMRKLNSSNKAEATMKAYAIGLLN
From the text: Construction of pSC11-Q: A 348 bp fragment spanning the upstream region of PA1897 (¢304 to +43 relative to the PA1897 translationalstart codon) was amplified from plasmid pJL101*by using primers 5′-GAATAT GGATCC TCTCTC CGCAGA TACCTG-3′ (BamHI site underlined) SEQ ID NO:5 and 5′-GCTATT GAATTC TGAAGA TGAATA GCGCCAC-3′ (EcoRI site underlined) SEQ ID NO:6. The PCR-generated fragment was digested with EcoRI and BamHI and subsequently ligated into EcoRI/BamHI-digested pPROBE-KT to generate pPROBE-KQ2. […] CGCC-3′ (BamHI site underlined) SEQ ID NO:8. The PCR-generated fragment was digested with SalI and BamHI and subsequently ligated into SalI/BamHI-digested pSC11 to generate pSC11-Q.
E. coli reporter gene assays: Primary assays for RhlR, LasR, and QscR activity in E. coli JLD271 reporter (beta-galactosidase) strains were performed as reported by Welsh et al. 2015, with the following modifications:
For all primary and dose-response antagonism assays, the concentration of native ligand utilized was approximately equal to its EC50 value in each bacterial reporter strain. For RhlR, LasR, and QscR primary antagonism assays, synthetic ligand (100 mm) was screened against BHL (10 mm), OdDHL (2 nm), and OdDHL (15 nm), respectively. For RhlR, LasR, and QscR primary agonism assays, synthetic compound (100 mm) was screened alongside and compared to the natural ligand (900 mm BHL or 100 mm OdDHL) for the receptor. As part of the beta-galactosidase assay protocol, plates to which CPRG substrate had been added were incubated at either 25° C. (LasR assay) or 30° C. (RhlR and QscR assays) until positive control wells developed a deep red color (10 min for LasR, 30 min for RhlR, and 60 min for QscR). Dose-response reporter gene assays were performed according to these protocols by using varying concentrations of compound.

SMILES: O=C(N[C@H]1CCOC1=O)C1CCCC1 [compound 3]
- Activation [%] RhlR (RhlR): 91%
- growth with other carbon sources (P. aeruginosa (PAO1); complete MOPS Glucose or LB broth, 100 μM compound 3): did not observe growth effects with other carbon sources
- growth in MOPS Glutamate (P. aeruginosa (PAO1); complete MOPS Glutamate, 100 μM): growth delay; also recorded: delayed P. aeruginosa growth in MOPS Glutamate
- Activation [%] QscR (QscR): 4%
